From patent publication US10219516B2, “Molecules having pesticidal utility, and intermediates, compositions, and processes, related thereto” (priority 2015, dated 2019) come the findings set out here.

Holding throughout (assay type): in vivo
Assay [1] has as its system Yellow Fever Mosquito (Aedes aegypti, AEDSAE). The assay is described as follows: Bioassay on Yellow Fever Mosquito (YFM), 96-well plate larval assay. The following applies: for YFM rating: Yellow Fever Mosquito, 96-well plate larval assay; for YFM (Biological Results, rating): Species YFM (Yellow Fever Mosquito). The method in brief:
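Each well was scored for mortality after 3 days at room temperature under a non-evaporative lid. Test molecules came from DMSO masters (4000 ppm stock) diluted with water/acetone 90:10 and dispensed into six replicate plates, which were then infested with roughly 1-day-old larvae in liver-powder water.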

The test system of assay [2] is Cabbage Looper (Trichoplusia ni, TRIPNI). Briefly: Bioassay on Cabbage Looper (CL), 128-well diet tray assay. As to conditions: Trichoplusia ni. In outline:
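Percent mortality, averaged across eight replicate wells, was scored after five to seven days at 25° C. under a 14:10 light-dark cycle. Each well held one to five second instar larvae on artificial diet treated at 50 μg/cm^2 with compound from 90:10 acetone-water, allowed to dry before infestation.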

Assay [3] relates to Beet Armyworm (Spodoptera exigua, LAPHEG). The assay is described as follows: Bioassay on Beet Armyworm (BAW), 128-well diet tray assay. In outline:
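Second instar larvae were exposed to diet treated at 50 μg/cm^2 for five to seven days at 25° C.; mortality was averaged over eight wells.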

Setting [4] is: Cabbage Looper, 128-well diet tray assay, read-out: CL rating.
The mark [5] stands for this setting: Beet Armyworm, 128-well diet tray assay, read-out: BAW rating.
[6] abbreviates: Species CL (Cabbage Looper), read-out: CL (Biological Results, rating).
The mark [7] stands for this setting: Species BAW (Beet Armyworm), read-out: BAW (Biological Results, rating).

Like-named read-outs stand apart in the source and are kept apart here.

On to `COC(=O)Nc1ccc(NC(=O)c2cc(NC(=O)[C@H]3[C@H](c4cc(Cl)cc(Cl)c4)C3(Cl)Cl)ccc2Cl)cc1` (relative stereo) [PF110, trans-methyl (4-(2-chloro-5-(2,2-dichloro-3-(3,5-dichlorophenyl)cyclopropane-1-carboxamido)benzamido)phenyl)carbamate], for which the YFM rating result in assay [1] is reported as “B (More than 0-Less than 80)”. Besides, the pest or weed control at 50 µg/cm2 in assay [2] (setting [4]) and in assay [3] (setting [5]) was 50 to 100% throughout.

As for `Cc1cc(NC(=O)c2cc(NC(=O)[C@H]3[C@H](c4cc(Cl)cc(Cl)c4)C3(Cl)Cl)ccc2Cl)ccc1Cl` (relative stereo) [PF113, trans-2-Chloro-N-(4-chloro-3-methylphenyl)-5-(2,2-dichloro-3-(3,5-dichlorophenyl)cyclopropane-1-carboxamido)benzamide], the YFM rating entry in assay [1] was “A (80-100)”. In addition, the pest or weed control at 50 µg/cm2 in assay [2] (setting [4]) and in assay [3] (setting [5]) was 50 to 100% throughout.

For `O=C(Nc1nnn[nH]1)c1cc(NC(=O)[C@H]2[C@H](c3cc(Cl)cc(Cl)c3)C2(Cl)Cl)ccc1Cl` (relative stereo) [PF130, trans-2-Chloro-5-(2,2-dichloro-3-(3,5-dichlorophenyl)cyclopropane-1-carboxamido)-N-(1H-tetrazol-5-yl)benzamide], the YFM rating entry in assay [1] was “B (More than 0-Less than 80)”. For the same compound, the pest or weed control at 50 µg/cm2 in assay [2] (setting [4]) and in assay [3] (setting [5]) was 50 to 100% each time.

For the compound `O=C(Nc1nc(-c2cccs2)cs1)c1cc(NC(=O)[C@H]2[C@H](c3cc(Cl)cc(Cl)c3)C2(Cl)Cl)ccc1Cl` (relative stereo) [PF135, trans-2-Chloro-5-(2,2-dichloro-3-(3,5-dichlorophenyl)cyclopropane-1-carboxamido)-N-(4-(thiophen-2-yl)thiazol-2-yl)benzamide], the YFM rating result in assay [1] is “A (80-100)”. The pest or weed control at 50 µg/cm2 in assay [2] (setting [4]) and in assay [3] (setting [5]) was 50 to 100% throughout.

Take `O=C(Nc1c[nH]c(=O)[nH]c1=O)c1cc(NC(=O)[C@H]2[C@H](c3cc(Cl)cc(Cl)c3)C2(Cl)Cl)ccc1Cl` (relative stereo) [PF139, trans-2-Chloro-5-(2,2-dichloro-3-(3,5-dichlorophenyl)cyclopropane-1-carboxamido)-N-(2,4-dioxo-1,2,3,4-tetrahydropyrimidin-5-yl)benzamide]: in assay [1], the YFM rating result is “B (More than 0-Less than 80)”. In addition, the pest or weed control at 50 µg/cm2 in assay [2] (setting [4]) and in assay [3] (setting [5]) was 50 to 100% in each case.

Take `O=C(Nc1cc(Cl)ccn1)c1cc(NC(=O)[C@H]2[C@H](c3cc(Cl)cc(Cl)c3)C2(Cl)Cl)ccc1Cl` (relative stereo) [PF140, trans-2-Chloro-N-(4-chloropyridin-2-yl)-5-(2,2-dichloro-3-(3,5-dichlorophenyl)cyclopropane-1-carboxamido)benzamide]: the YFM rating result in assay [1] was “A (80-100)”. Also, the pest or weed control at 50 µg/cm2 in assay [2] (setting [4]) and in assay [3] (setting [5]) was 50 to 100% throughout.

As for `O=C(Nc1ccc(Cl)cn1)c1cc(NC(=O)[C@H]2[C@H](c3cc(Cl)cc(Cl)c3)C2(Cl)Cl)ccc1Cl` (relative stereo) [PF141, trans-2-Chloro-N-(5-chloropyridin-2-yl)-5-(2,2-dichloro-3-(3,5-dichlorophenyl)cyclopropane-1-carboxamido)benzamide], the YFM rating entry in assay [1] is “B (More than 0-Less than 80)”. In addition, the pest or weed control at 50 µg/cm2 in assay [2] (setting [4]) and in assay [3] (setting [5]) was 50 to 100% in each case.

In the case of `N#Cc1ccc(NC(=O)c2cc(NC(=O)[C@H]3[C@H](c4cc(Cl)cc(Cl)c4)C3(Cl)Cl)ccc2Cl)nc1` (relative stereo) [PF143, trans-2-Chloro-N-(5-cyanopyridin-2-yl)-5-(2,2-dichloro-3-(3,5-dichlorophenyl)cyclopropane-1-carboxamido)benzamide], in assay [1], the YFM rating entry is given as “A (80-100)”. In addition, the pest or weed control at 50 µg/cm2 in assay [2] (setting [4]) and in assay [3] (setting [5]) was 50 to 100% in each case.

With `CC(=O)Nc1ccc(NC(=O)c2cc(NC(=O)[C@H]3[C@H](c4cc(Cl)cc(Cl)c4)C3(Cl)Cl)ccc2Cl)c(C)c1` (relative stereo) [PF158, trans-N-(4-Acetamido-2-methylphenyl)-2-chloro-5-(2,2-dichloro-3-(3,5-dichlorophenyl)cyclopropane-1-carboxamido)benzamide], the YFM rating entry in assay [1] is “A (80-100)”. Also, the pest or weed control at 50 µg/cm2 in assay [2] (setting [4]) and in assay [3] (setting [5]) was 50 to 100% each time.

For the compound `COCC1(C(=O)Nc2ccc(NC(=O)c3cc(NC(=O)[C@H]4[C@H](c5cc(Cl)cc(Cl)c5)C4(Cl)Cl)ccc3Cl)cc2)CC1` (relative stereo) [PF161, trans-2-Chloro-5-(2,2-dichloro-3-(3,5-dichlorophenyl)cyclopropane-1-carboxamido)-N-(4-(1-(methoxymethyl)cyclopropane-1-carboxamido)phenyl)benzamide], the YFM rating entry in assay [1] is listed as “A (80-100)”. The pest or weed control at 50 µg/cm2 in assay [2] (setting [4]) and in assay [3] (setting [5]) was 50 to 100% throughout.

`O=C(CC1CC1)Nc1ccc(NC(=O)c2cc(NC(=O)[C@H]3[C@H](c4cc(Cl)cc(Cl)c4)C3(Cl)Cl)ccc2Cl)cc1` (relative stereo) [PF163, trans-2-Chloro-N-(4-(2-cyclopropylacetamido)phenyl)-5-(2,2-dichloro-3-(3,5-dichlorophenyl)cyclopropane-1-carboxamido)benzamide]: the YFM rating entry in assay [1] was “A (80-100)”. The pest or weed control at 50 µg/cm2 in assay [2] (setting [4]) and in assay [3] (setting [5]) was 50 to 100% throughout.

As to `O=C(Nc1ccc(F)cc1)c1cc(NC(=O)[C@@H]2[C@@H](c3cc(Cl)cc(Cl)c3)C2(Cl)Cl)ccc1Cl` [F166, 2-Chloro-5-((1S,3S)-2,2-dichloro-3-(3,5-dichlorophenyl)cyclopropane-1-carboxamido)-N-(4-fluorophenyl)benzamide], the “YFM (Biological Results, rating)” value in assay [1] is reported as “B (More than 0-Less than 80)”. Also, the pest or weed control at 50 µg/cm2 in assay [2] (setting [6]) and in assay [3] (setting [7]) was 50 to 100% in each case.

For the compound `CN(C(=O)c1cc(NC(=O)C2C(c3cc(Cl)cc(Cl)c3)C2(Cl)Br)ccc1Cl)c1ccc(F)cc1` (stereo not drawn) [F167, 5-(trans)-2-Bromo-2-chloro-3-(3,5-dichlorophenyl)cyclopropanecarboxamido)-2-chloro-N-(4-fluorophenyl)-N-methylbenzamide], the “YFM (Biological Results, rating)” value in assay [1] is on record as “B (More than 0-Less than 80)”. Also, the pest or weed control at 50 µg/cm2 in assay [2] (setting [6]) and in assay [3] (setting [7]) was 50 to 100% in each case.

On to `CN(C(=O)c1cc(NC(=O)[C@H]2[C@H](c3cc(Cl)cc(Cl)c3)C2(Cl)Cl)ccc1Cl)c1ccc(F)cc1` [F169, 2-Chloro-5-((1R,3R)-2,2-dichloro-3-(3,5-dichlorophenyl)cyclopropane-1-carboxamido)-N-(4-fluorophenyl)-N-methylbenzamide], for which the “YFM (Biological Results, rating)” value in assay [1] is reported as “A (80-100)”. The pest or weed control at 50 µg/cm2 in assay [2] (setting [6]) and in assay [3] (setting [7]) was 50 to 100% each time.

Turning to `CN(C(=O)c1cc(NC(=O)[C@@H]2[C@@H](c3cc(Cl)cc(Cl)c3)C2(Cl)Cl)ccc1Cl)c1ccc(F)cc1` [F170, 2-Chloro-5-((1S,3S)-2,2-dichloro-3-(3,5-dichlorophenyl)cyclopropane-1-carboxamido)-N-(4-fluorophenyl)-N-methylbenzamide], the “YFM (Biological Results, rating)” value in assay [1] is given as “A (80-100)”. Moreover, the pest or weed control at 50 µg/cm2 in assay [2] (setting [6]) and in assay [3] (setting [7]) was 50 to 100% throughout.

For `O=C(Nc1cc2[nH]ccc2cc1Br)c1cc(NC(=O)C2C(c3cc(Cl)cc(Cl)c3)C2(Cl)Cl)ccc1Cl` (stereo not drawn) [F172, N-(5-Bromo-1H-indol-6-yl)-2-chloro-5-(trans)-2,2-dichloro-3-(3,5-dichlorophenyl)cyclopropane-1-carboxamido)benzamide], the “YFM (Biological Results, rating)” value in assay [1] was “B (More than 0-Less than 80)”. The pest or weed control at 50 µg/cm2 in assay [2] (setting [6]) and in assay [3] (setting [7]) was 50 to 100% throughout.

Consider `O=C(Nc1cc(F)c2cc[nH]c2c1)c1cc(NC(=O)C2C(c3cc(Cl)cc(Cl)c3)C2(Cl)Cl)ccc1Cl` (stereo not drawn) [F173, 2-Chloro-5-(trans)-2,2-dichloro-3-(3,5-dichlorophenyl)cyclopropane-1-carboxamido)-N-(4-fluoro-1H-indol-6-yl)benzamide], for which, in assay [1], the “YFM (Biological Results, rating)” value is given as “B (More than 0-Less than 80)”. The pest or weed control at 50 µg/cm2 in assay [2] (setting [6]) and in assay [3] (setting [7]) was 50 to 100% in each case.

`O=C(Nc1ccc2cc[nH]c2n1)c1cc(NC(=O)C2C(c3cc(Cl)cc(Cl)c3)C2(Cl)Cl)ccc1Cl` (stereo not drawn) [F178, 2-Chloro-5-(trans)-2,2-dichloro-3-(3,5-dichlorophenyl)cyclopropane-1-carboxamido)-N-(1H-pyrrolo[2,3-b]pyridin-6-yl)benzamide]: the “YFM (Biological Results, rating)” value in assay [1] is on record as “B (More than 0-Less than 80)”. Also, the pest or weed control at 50 µg/cm2 in assay [2] (setting [6]) and in assay [3] (setting [7]) was 50 to 100% in each case.

With `O=C(Nc1ccc(F)cc1F)c1cc(NC(=O)[C@H]2[C@H](c3cc(Cl)cc(Cl)c3)C2(Cl)Cl)ccc1Cl` [F185, 2-Chloro-5-((1R,3R)-2,2-dichloro-3-(3,5-dichlorophenyl)cyclopropane-1-carboxamido)-N-(2,4-difluorophenyl)benzamide], the “YFM (Biological Results, rating)” value in assay [1] is recorded as “B (More than 0-Less than 80)”. Also, the pest or weed control at 50 µg/cm2 in assay [2] (setting [6]) and in assay [3] (setting [7]) was 50 to 100% in each case.
